# From ChEMBL document CHEMBL1201862, “PubChem BioAssay data set” (2004)
#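 Growth conditions: 96-well plates. Treatment: test compound, 48 hours, 5 concentrations. Analysis: linear interpolation between bracketing concentrations; unreached endpoints set to highest concentration. GI50 marks 50% less growth.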 Calls of active or inactive are those of the source. Cut-off read from the data, not from the text of the source: active = GI50 up to about 1.1 µM and inactive = higher.
# Key:
# Test in all cases: NCI anticancer screen, dose series, 48 h
# UACC-62 = system: UACC-62
# NCI-H522 = system: NCI-H522
# HL-60 = system: HL-60
# MOLT-4 = system: MOLT-4
# DU-145 = system: DU-145
# HCC 2998 = system: HCC 2998
# UACC-257 = system: UACC-257
# RPMI-8226 = system: RPMI-8226
# UO-31 = system: UO-31
# HCT-116 = system: HCT-116
# HOP-92 = system: HOP-92
# T47D = system: T47D
# Malme-3M = system: Malme-3M
# KM12 = system: KM12
# SF-295 = system: SF-295
# ACHN = system: ACHN
# IGROV-1 = system: IGROV-1
# Hs-578T = system: Hs-578T
Structure (SMILES),GI50 (UACC-62),GI50 (NCI-H522),GI50 (HL-60),GI50 (MOLT-4),GI50 (DU-145),GI50 (HCC 2998),GI50 (UACC-257),GI50 (RPMI-8226),GI50 (UO-31),GI50 (HCT-116),GI50 (HOP-92),GI50 (T47D),GI50 (Malme-3M),GI50 (KM12),GI50 (SF-295),GI50 (ACHN),GI50 (IGROV-1),GI50 (Hs-578T)
C=C(C(=O)OC)[C@H]1CC/C(C)=C/CC/C(C)=C/CC[C@@]2(C)O[C@@H]2C1,11.9 µM (inactive),18.2 µM (inactive),13 µM (inactive),15.8 µM (inactive),21.9 µM (inactive),16 µM (inactive),23.8 µM (inactive),14.4 µM (inactive),19 µM (inactive),15.4 µM (inactive),16.4 µM (inactive),16.3 µM (inactive),25.1 µM (inactive),16.5 µM (inactive),11.5 µM (inactive),19.8 µM (inactive),16 µM (inactive),
C[C@@H](CO)C1=CC(C#C[Si](C)(C)C)N(C(=O)Oc2ccccc2)c2ccccc21 (some centres undefined),9.1 µM (inactive),16.8 µM (inactive),17.1 µM (inactive),3.29 µM (inactive),21.6 µM (inactive),15.2 µM (inactive),16.8 µM (inactive),24.9 µM (inactive),14.7 µM (inactive),15.3 µM (inactive),11.7 µM (inactive),18.2 µM (inactive),,14.2 µM (inactive),12.2 µM (inactive),18.6 µM (inactive),17.1 µM (inactive),25.1 µM (inactive)
CC(O)[C@@]1(c2ccccc2)CC2(CCN(C)CC2)O[C@H]1C (some centres undefined),99.5 µM (inactive),> 100 µM (inactive),26.2 µM (inactive),> 100 µM (inactive),> 100 µM (inactive),> 100 µM (inactive),> 100 µM (inactive),> 100 µM (inactive),39.8 µM (inactive),,22.2 µM (inactive),33.9 µM (inactive),> 100 µM (inactive),> 100 µM (inactive),> 100 µM (inactive),> 100 µM (inactive),> 100 µM (inactive),> 100 µM (inactive)
Cc1cc(C)c(-c2no/c(=N\S(=O)(=O)c3ccc(Cl)cc3)o2)c(C)c1,> 100 µM (inactive),28.6 µM (inactive),42.1 µM (inactive),> 100 µM (inactive),> 100 µM (inactive),> 100 µM (inactive),31.1 µM (inactive),37.2 µM (inactive),> 100 µM (inactive),51.1 µM (inactive),,93.3 µM (inactive),75 µM (inactive),57.9 µM (inactive),> 100 µM (inactive),> 100 µM (inactive),> 100 µM (inactive),> 100 µM (inactive)
COc1nc(C)nc2c1ncn2Cc1ccccc1,> 100 µM (inactive),> 100 µM (inactive),> 100 µM (inactive),,> 100 µM (inactive),> 100 µM (inactive),> 100 µM (inactive),> 100 µM (inactive),,> 100 µM (inactive),< 0.01 µM (active),> 100 µM (inactive),> 100 µM (inactive),> 100 µM (inactive),> 100 µM (inactive),> 100 µM (inactive),> 100 µM (inactive),99.8 µM (inactive)
Cc1cc(=O)cc2sc3cc(Cl)ccc3nc1-2,6.84 µM (inactive),2.54 µM (inactive),2.66 µM (inactive),12.6 µM (inactive),,10.5 µM (inactive),16.9 µM (inactive),5.87 µM (inactive),13.7 µM (inactive),9.42 µM (inactive),22.3 µM (inactive),,11.5 µM (inactive),4.5 µM (inactive),6.5 µM (inactive),6.04 µM (inactive),12.1 µM (inactive),
